Source: US5942523A, “Compounds which are selective antagonists of the human NK3 receptor and their use as medicinal products and diagnostic tools” (Sanofi, priority 1994, dated 1999)
Residues, ends and D or L forms follow the SMILES beside them.

What was measured:
human NK3 receptor = target: T1, human NK3 receptor (Homo sapiens, UniProt P29371); test: binding of [^125 I]His[MePhe^7 ]NKB to the cloned human NK3 receptors expressed by CHO cells; conditions: from comparison of Ki values for human NK3 and other tachykinin receptors
T1 construct: expressed in transfected cells; host or cells: CHO cells
T1 sequence (P29371 1-465): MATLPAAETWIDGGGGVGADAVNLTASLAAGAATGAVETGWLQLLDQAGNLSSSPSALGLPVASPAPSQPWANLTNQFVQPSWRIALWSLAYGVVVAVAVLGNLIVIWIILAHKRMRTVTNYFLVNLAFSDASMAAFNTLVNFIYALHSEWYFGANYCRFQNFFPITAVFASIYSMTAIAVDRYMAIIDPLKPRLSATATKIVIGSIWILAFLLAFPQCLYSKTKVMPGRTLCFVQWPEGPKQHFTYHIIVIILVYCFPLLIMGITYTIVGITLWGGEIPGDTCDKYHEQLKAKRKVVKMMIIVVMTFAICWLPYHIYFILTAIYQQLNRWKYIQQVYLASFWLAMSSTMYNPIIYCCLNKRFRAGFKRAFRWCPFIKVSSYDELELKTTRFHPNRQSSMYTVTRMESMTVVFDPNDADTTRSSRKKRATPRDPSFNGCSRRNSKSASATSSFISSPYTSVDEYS
Method: In studies on the binding of a ligand, the inhibition constant Ki is defined by the Cheng-Prusoff equation (in Receptor Binding in Drug Research, eds. R. A. O'BRIEN. Marcel Dekker, New York, 1986): [formula] [L]: ligand concentration Kd: dissociation constant of the ligand,
The affinity of the compounds of formula (I') for the tachykinin receptors was evaluated in vitro by several biochemical assays using radioligands:
3) The binding of [^125 I]His[MePhe^7 ]NKB to the NK3 receptors of rat cerebral cortex, of guinea pig cerebral cortex and of gerbil cerebral cortex as well as to the cloned human NK3 receptors expressed by CHO cells (Buell et al., FEBS Letters, 1992, 299, 90-95).
The assays were carried out according to X. Emonds-Alt et al. (Eur. J. Pharmacol., 1993, 250, 403-413).

NK3 receptor [1] = test: rotating behavior induced by intrastriatal administration of senktide in gerbils; assay type: in vivo; conditions: unilateral application in the gerbil striatum; agonist alone
Method: (§1) The compounds according to the present invention were also evaluated in vivo on two animal models.

NK3 receptor [2] = test: hypertension induced by intravenous or intracerebroventricular injection of senktide in guinea pigs; assay type: in vivo, guinea pig; conditions: agonist alone
Method: as §1

`CN(CC(CCCN1CCC(O)(c2ccccc2)CC1)c1ccc(Cl)c(Cl)c1)C(=O)c1ccccc1.Cl` (stereo not shown) [Example 22 of Application EP 474561, N-Methyl-N-[2-(3,4-dichlorophenyl)-5-(4-hydroxy-4-phenylpiperid-1-yl)pentyl]benzamide hydrochloride] was tested, and the “selectivity / specificity for the human NK3 receptor” value (human NK3 receptor) was “high specificity”.

With `Cl.O=C1CCC(CCN2CCC(O)(c3ccccc3)CC2)(c2ccc(Cl)c(Cl)c2)CN1Cc1ccccc1` (stereo not shown) [compound A, 5-[2-(4-hydroxy-4-phenylpiperid-1-yl)ethyl]-5-(3,4-dichlorophenyl)-1-benzylpiperid-2-one hydrochloride] the “selectivity / specificity for the human NK3 receptor” value (human NK3 receptor) was “not selective for the human NK3 receptor”.

In the case of `CSCC[C@H](NC(=O)[C@H](CC(C)C)NC(=O)CNC(=O)[C@H](Cc1ccccc1)N(C)C(=O)[C@H](Cc1ccccc1)NC(=O)[C@H](CC(=O)O)NC(=O)CCC(=O)O)C(N)=O` [senktide] (HELM PEPTIDE1{[O=C(O)CCC(=O)[*:2]].D.F.[meF].G.L.M.[am]}$$$$V2.0), the rotating behavior (NK3 receptor [1]) is reported as “strong contralateral rotations” and the hypertension (NK3 receptor [2]) is reported as “induces a hypertension”.
